Values after ≈ are worked out from the molar mass of the structure shown.

The subject of one data set is A. baumannii ATCC 19606. Briefly: Cell division phenotype by light microscopy. The format is cell-based, Acinetobacter baumannii. Conditions: LXC compounds at 2 × MIC. As to the method:
Morphological changes of bacteria when exposed to the compounds were assessed microscopically using the assay as previously described ([Chai et al., 2020]). Eppendorf® tubes were set up with A. baumannii ATCC 19606 as described for the time-kill assays. At time 0, 1, 3, 6, and 18 h, an aliquot of the bacterial suspension (1 μL) was transferred onto a glass slide and viewed under a light microscope (Olympus CX33®) at 100 × magnification. Representative images were captured using JENOPTIK GRYPHAX® imaging.
A 1 μL aliquot was taken out at varying timepoints (0, 1, 3, 6, and 18 h) and imaged by light microscopy. The images for 6 h are depicted here. […] The white arrow indicates “grooving” site, an indication of where separation of daughter cells should take place. Scale bar is 50 μm.
Four of the compounds (LXC 31, 33, 35 and 41) were tested at 1× and 2× their minimum inhibitory concentration (MIC) whereas LXC 36 and 43 were tested at 2× and 4× MIC. The phenotypic changes in A. baumannii morphology were analysed under a light microscope (100× magnification) at time 0, 1, 3, 6 and 18 h. Scale bar is 50 µm.

Data set [1] deals with Pseudomonas aeruginosa ATCC 27853. Also noted: method as in Li et al., 2015a,b. The following applies: ref Li et al., 2015a,b; cited from earlier work.
A further data set concerns E. coli ATCC 25922. More on the design: method as in Li et al., 2015a,b. The following applies: ref Li et al., 2015a,b; cited from earlier work.
The subject of the next data set is Caenorhabditis elegans. Briefly: Nematode toxicity (survival). Type of data set: in vivo. Conditions: 1 × and 2 × MIC, up to 72 h, 25°C. As to the method: Protocols for growing, harvesting, and synchronizing C. elegans have been previously described ([Porta-de-la-Riva et al., 2012]; [Chai et al., 2020]) and were performed with the following modifications. The nematodes were treated with LXC compounds 1 to 6 at 1 × and 2 × MIC with at least 3 replicates using a final DMSO concentration of 2% (v/v). The plate was incubated at 25°C and the number of live vs dead nematodes was enumerated every 24 h for 72 h. […] The percentage of living nematodes at each time point across 72 h was calculated to give the percentage of survival.
FIGURE 10 The LXC compounds (apart from compound 5) were not cytotoxic to C. elegans nematodes. (A–F) C. elegans nematodes were cultured on nematode growth media agar plate and harvested in optimized growth media, with E. coli as its primary source of nutrient. […] The nematodes were counted under a light microscope at 400× magnification and the live nematodes at 72 h was indicated as a fraction of the starting number of nematodes (percentage survival). The results are presented in mean percentage of survival ± SEM. Statistical analysis was performed using two-way ANOVA and the asterisks (*) represent statistical significance: LXC 41 (5) at time 72 h (*p < 0.05).

The next data set relates to E. coli FtsZ. Conditions: FtsZ from E. coli, 120 μg/mL; ref Li et al., 2015a; cited from earlier work.
For a further data set, the system named is human red blood cells. The experiment in a line: Hemolysis assay. The format is cell-based. Conditions: fresh human RBCs, 1 h, 37°C, concentrations up to 4 × MIC (concentration in the value words). As to the method: The hemolysis assay was performed using fresh human red blood cells (RBCs). […] These were performed in quadruplicate. Thereafter, 192 μL RBCs were added into all wells and the plates were incubated at 37°C under constant shaking (100 rpm) for 1 h. RBCs were precipitated by centrifugation of the plates (1,000× g for 3 min). An aliquot (100 μL) of each supernatant was transferred into a new 96-microwell plate and the A450 nm was determined using a PerkinElmer Enspire® plate reader. The fraction of intact RBC for each sample was determined as fraction of the intact RBCs for the sample without the addition of compounds (set at 100%) and plotted as a function of compound concentration.
A 1% (v/v) Triton X-100 was used to indicate complete RBC lysis (^‡). […] The assays were performed in quadruplicates. The plates were incubated at 37°C while constantly shaking at 100 rpm for 1 h. Intact RBCs were removed by centrifugation and the presence of hemolytic products in the supernatant were determined by measuring the absorbance at A450 nm. The results are presented in mean ± SEM. Statistical analysis was performed using one-way ANOVA and the asterisks (*) represent statistical significance (*p < 0.05; **p < 0.005; ***p < 0.0005; ****p < 0.0001).

As to `Cc1nc2ccccc2n1C(=O)/C=C/c1ccccc1` [Compound 1], the “Time until elongated phenotype is seen” value in the data set on A. baumannii ATCC 19606 is above 3 h. The MIC (in data set [1]; in the data set with E. coli ATCC 25922) was 128 µg/mL (≈ 488 µM) each time. For the same compound, the “Toxicity toward C. elegans (survival)” value in the data set on Caenorhabditis elegans is on record as “do not have in vivo toxicity in this model at 2 × MICs for up to 72 h”.
Consider `Cc1nc2ccccc2n1C(=O)/C=C/c1ccc(Cl)cc1Cl` [Compound 6], for which the “Time until elongated phenotype is seen” value with A. baumannii ATCC 19606 is recorded as at most 3 h. Further, the “Effect on FtsZ polymerization, light scattering” value (“Effect on FtsZ polymerization” for short) in the data set on E. coli FtsZ is recorded as “impaired polymerization”. Besides, the “Toxicity toward C. elegans (survival)” value with Caenorhabditis elegans was “devoid of hemolytic activity and cytotoxicity against mammalian cells in vitro, as well as adverse activity in a Caenorhabditis elegans nematode model”.
In the case of `COc1ccc(/C=C/C(=O)n2c(C)nc3ccccc32)cc1OC` [Compound 5], the Hemolytic activity result in the data set with human red blood cells is recorded as “only non-lytic at a low concentration (0.25 × MIC, Figure 9E)”. Besides, in the data set with Caenorhabditis elegans, the “Toxicity toward C. elegans (survival)” value was “significant toxicity (p < 0.05) but only after 72 h treatment”.
As to `Cc1nc2ccccc2n1C(=O)/C=C/c1ccc(F)cc1` [Compound 2], the “Time until elongated phenotype is seen” value with A. baumannii ATCC 19606 is at most 3 h. In addition, the “Effect on FtsZ polymerization” value with E. coli FtsZ is recorded as “impaired polymerization”. In the data set on Caenorhabditis elegans, the “Toxicity toward C. elegans (survival)” value was “do not have in vivo toxicity in this model at 2 × MICs for up to 72 h”.
For the compound `Cc1nc2ccccc2n1C(=O)/C=C/c1ccc(Br)cc1` [Compound 4], the “Time until elongated phenotype is seen” value in the data set on A. baumannii ATCC 19606 is recorded as at most 3 h. Also, the Hemolytic activity result in the data set on human red blood cells is listed as “devoid of hemolytic activity even at the highest concentration tested (4 × MIC, Figure 9D)”.
Consider `Cc1nc2ccccc2n1C(=O)/C=C/c1ccc(Cl)cc1` [Compound 3], for which the “Time until elongated phenotype is seen” value in the data set with A. baumannii ATCC 19606 was at most 3 h. Besides, the “Effect on FtsZ polymerization” value in the data set on E. coli FtsZ is listed as “impaired polymerization”. The “Toxicity toward C. elegans (survival)” value in the data set on Caenorhabditis elegans is reported as “do not have in vivo toxicity in this model at 2 × MICs for up to 72 h”.
